What all share (type): cell-based, human
The test system of one data set is VEGF. In words: ELISA for VEGF in supernatants of LE-treated HREC. To be noted: LE 0, 10, 25 & 50 μM, 3 days. As to the method: (§1) HREC were treated with LE (10, 25 and 50 μM) for 3 days. Supernatants were removed and microcentrifuge (Beckman Microfuge R) 1000 RPM for 10 min (4° C. after which they were stored at −70° C. until needed. ELISA kits (R&D systems) for human vascular endothelial growth factor (VEGF), soluble intracellular adhesion molecule (sICAM-1) and soluble vascular cell adhesion molecule (sVCAM-1) were used according to the manufacturer's instructions.

The subject of the next data set is sVCAM-1. Nature of the data set: ELISA for sVCAM-1 in supernatants of LE-treated HREC. To be noted: HREC with or without LPS activation; LE 0, 10, 25 & 50 μM, 3 days; p≦0.05 (FIG. 2A). How it is done: as §1
In general terms: In an ELISA, binding on a coated surface is turned into a signal by an enzyme label.

The next data set concerns sICAM-1. Nature of the data set: ELISA for sICAM-1 in supernatants of LE-treated HREC. To be noted: HREC with or without LPS activation; LE 0, 10, 25 & 50 μM, 3 days; p≦0.05 (FIG. 2B). As to the method: as §1
For a further data set, the system named is HREC. Nature of the data set: Cellular toxicity in LE-treated HREC. To be noted: highest concentration of LE tested (50 μM).
For the next data set, the system named is ZO-1. In words: Immunohistochemistry of tight junction protein ZO-1 in VEGF-treated HREC. To be noted: LE 10 & 50 μM for 1 hour, then VEGF 20 ng/ml for 1 hour, listed as LE. As to the method: Human retina endothelial cells were seeded onto an 8-well glass chamber and allowed to become 80-90% confluent. Cells were treated with or without LE for 1 hour and then treated with VEGF (20 ng/ml) for 1 hour. HREC were immediately fixed and stained with specific antibodies to occludin and zonula occluden-1 (Zymed). FITC-conjugated secondary antibodies (R&D Systems) were used to visualize tight junction distribution/integrity.

The next data set relates to occludin. Nature of the data set: Western blot analysis of occludin in cell lysates. To be noted: LE 0, 10 & 50 μM; daily administration for 3 days necessary to maintain effect. How it is done:
Cells were treated with LE (0, 10 & 50 μM) for either 3 days or LE (0, 10 & 50 μM) was replenished everyday for 3 days. Cells were lysed and protein levels determined/adjusted (see above). SDS PAGE was performed on cell lysates and then separated proteins were transferred on to a nitrocellulose (NC) paper (Invitrogen). NC paper was blocked with 3% non-fat milk in phosphate buffered saline (PBS) for 1 hour and then probed with specific anti bodies to occludin (Rabbit anti-occludin polyclonal and monoclonal antibodies, Zymed); Goat anti-occludin (Santa Cruz). NC paper was then incubated with secondary horseradish peroxidase conjugated antibody for 1 hour and the bands were visualized using DAB (3,3′-diaminobenzidine) (Vector Laboratories) or cheminluminescence (SuperSignal West Dura, Pierce).
(In western blotting, separated proteins are transferred to a membrane and probed.)

Entries after “also recorded” stand apart in the source; their conditions may differ.

For `CCOC(=O)O[C@]1(C(=O)OCCl)CC[C@H]2[C@@H]3CCC4=CC(=O)C=C[C@]4(C)[C@H]3[C@@H](O)C[C@@]21C` [Loteprednol etabonate], the “expression of VEGF” value in the data set on VEGF (HREC with LPS activation, p≦0.01 (FIG. 1A)) was “significantly down regulated”; in the data set with VEGF (HREC without LPS activation, p≦0.01 (FIG. 1B)), “significantly down regulated”. Besides, in the data set on sVCAM-1, the “expression of sVCAM-1” value is recorded as “significantly down regulated”. Further, the “expression of sICAM-1” value with sICAM-1 is on record as “significantly down regulated”. Also, in the data set with HREC, the cellular toxicity result is given as “no apparent cellular toxicity”. In addition, the “effect on VEGF-induced disruption/redistribution of ZO-1 (tight junction)” value in the data set on ZO-1 is given as “reversed the effect of VEGF tight junction disruption; also recorded: inhibited the effect of VEGF-induced disruption of ZO-1”. Also, the “total content of occludin” value with occludin is listed as “increased”.

The record behind these values is patent US20070093461A1, “Effect of Loteprednol etabonate on vascular dysfunction” (Bausch & Lomb Incorporated, priority 2005, published 2007).
